Measured values reported in article PMC10587159, “Biosynthesis and engineering of the nonribosomal peptides with a C-terminal putrescine” (Nature Communications, 2023).
“Also recorded” adds a separate entry of the source. Residues, ends and D or L forms follow the SMILES beside them. *: point of attachment. Octanoyl = CCCCCCCC(=O)*; NH(CH2)4NH2 = NCCCCN*

Assays:
[1] = test system: human lung epithelial normal cell 2B; assay: cells; assay type: cell-based; conditions: 24 h
Summary of the method: (§1)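 MTT read-out of viability; cancer lines plus normal 2B epithelial cells. Lines authenticated by morphology, gene/protein expression.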

[2] = test system: human breast adenocarcinoma cells MDA-MB-231; assay: cells; assay type: cell-based; conditions: 24 h
Summary of the method: (§2)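 Cytotoxicity in Kasumi, HepG-2, SGC-7901 and normal lung epithelial 2B cells, among other human tumour lines, was measured by MTT assay.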

[3] = test system: human hepatoma cell HepG-2; assay: cells; assay type: cell-based; conditions: 24 h
Summary of the method: as §1

[4] = test system: human ovarian cancer cell line SKOV3; assay: cells; assay type: cell-based; conditions: 24 h
Summary of the method: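 Cells were exposed to compounds and viability was then quantified by MTT assay, per an earlier published method. Panel included leukemia Kasumi, hepatoma HepG-2, gastric SGC-7901 and normal lung epithelial 2B cells.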

[5] = test system: tumor lines; assay: MTT cytotoxicity assay, statements on the whole panel; assay type: cell-based, human
Summary of the method: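 An MTT-based assay, run as in prior work, gives compound cytotoxicity here. The tested lines undergo routine authentication through morphology and gene/protein expression checks.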

[6] = test system: human lung adenocarcinoma cell A549; assay: MTT cytotoxicity assay, A549; assay type: cell-based; conditions: 24 h
Summary of the method: as §2

[7] = test system: RAW 264.7 cells; assay: NO production in LPS-induced RAW264.7 cells (Griess method), anti-inflammatory; assay type: cell-based; conditions: compounds 0-80 μM for 30 min, then co-treatment with LPS 24 h; Griess reagents, OD 540 nm
Source text: The two human acute lymphoblastic leukemia cells K562 and Kasumi, two human breast adenocarcinoma cells MCF7 and MDA-MB-231, human hepatoma cell HepG-2, human lung adenocarcinoma cell A549, human gastric cancer cell SGC-7901, human colon cancer cell HCT-116, human ovarian cancer cell line SKOV3, or human lung epithelial normal cell 2B were obtained from Beyotime Biotechnology and utilized to test the cytotoxicity of compounds by MTT assays as previous study. The anti-inflammatory effect of the compounds was detected by the influence on the increase in the level of nitric oxide caused by lipopolysaccharide (LPS) based on the classic Griess method. RAW 264.7 cells (Shanghai Institutes for Biological Science) were seeded in 96-well plates and incubated for 24 h. Then, cells were treated with compounds 29, 29a, 31, and 31a (0-80 μM) for 30 min, followed by co-treatment with LPS ([…]) for another 24 h. The Nitric Oxide assay kit with Griess reagents (Beyotime, Lot: S0021, Shanghai, China) was used to examine cellular supernatant nitrite accumulation, which represents cellular NO levels. The OD value of 540 nm absorbance was detected with a microplate reader. […]
We measured NO production to test the anti-inflammatory activity of compounds […]
cellular NO levels. The OD value of 540 nm absorbance was detected with a microplate […]

IC50 [2]: 168.9 ± 1.05 µM
IC50 [3]: 136.2 ± 0.15 µM
IC50 [4]: 241.4 ± 0.07 µM
SMILES: CCCCCCCC(=O)N[C@H](C(=O)N[C@@H](Cc1ccccc1)C(=O)N[C@@H](CCC(=O)O)C(=O)N[C@H](C(=O)N[C@@H](C)C(=O)NCCCCN)[C@@H](C)CC)C(C)C [Compound 31] (Octanoyl-VFEIA-{NH(CH2)4NH2}; N-terminus assumed)
IC50 [1]: 42.6 ± 1.25 µM
IC50 ([5]; 24 h): > 40 µM
cytotoxic / antitumor activity in words ([5]; MTT assay, panel of tumor cell lines): higher anti-inflammatory and antitumor activities than 29a and 31a
IC50 [6]: 198.3 ± 1.25 µM
anti-inflammatory activity (NO production in LPS-induced RAW264.7 cells) in words [7]: higher anti-inflammatory and antitumor activities than 29a and 31a; also recorded: moderate; also recorded: suppressed moderately the release
